Results published in ChEMBL document CHEMBL1145289, “Propidium-based polyamine ligands as potent inhibitors of acetylcholinesterase and acetylcholinesterase-induced amyloid-beta aggregation” (J Med Chem, 2005).

Legend:
[1] = molecular target: Cholinesterase (Homo sapiens, UniProt P06276)
Description: Inhibition of Butyrylcholinesterase

[2] = molecular target: T1, Acetylcholinesterase (Homo sapiens, UniProt P22303)
Description: Competitive inhibition constant for Acetylcholinesterase

[3] = molecular target: T1, Acetylcholinesterase; remark: listed apart in the source
Description: Inhibition of Acetylcholinesterase

Sequence of Cholinesterase (P06276 whole entry): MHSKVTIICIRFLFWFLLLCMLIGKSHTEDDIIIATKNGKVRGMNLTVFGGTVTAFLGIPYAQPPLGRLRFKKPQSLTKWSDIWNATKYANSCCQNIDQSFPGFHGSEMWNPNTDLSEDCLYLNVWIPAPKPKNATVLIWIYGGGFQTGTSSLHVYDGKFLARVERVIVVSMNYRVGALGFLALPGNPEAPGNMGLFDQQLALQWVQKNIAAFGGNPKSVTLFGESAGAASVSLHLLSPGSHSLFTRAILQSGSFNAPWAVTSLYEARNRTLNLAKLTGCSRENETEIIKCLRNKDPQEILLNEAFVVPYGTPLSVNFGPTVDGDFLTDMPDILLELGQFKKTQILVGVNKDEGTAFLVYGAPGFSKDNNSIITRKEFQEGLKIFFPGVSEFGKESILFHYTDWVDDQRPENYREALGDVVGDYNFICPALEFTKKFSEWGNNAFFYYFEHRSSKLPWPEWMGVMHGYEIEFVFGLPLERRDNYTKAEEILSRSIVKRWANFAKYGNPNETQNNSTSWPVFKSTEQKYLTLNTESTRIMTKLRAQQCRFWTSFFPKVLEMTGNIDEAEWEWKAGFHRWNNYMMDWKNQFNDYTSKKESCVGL
T1 sequence (P22303 whole entry): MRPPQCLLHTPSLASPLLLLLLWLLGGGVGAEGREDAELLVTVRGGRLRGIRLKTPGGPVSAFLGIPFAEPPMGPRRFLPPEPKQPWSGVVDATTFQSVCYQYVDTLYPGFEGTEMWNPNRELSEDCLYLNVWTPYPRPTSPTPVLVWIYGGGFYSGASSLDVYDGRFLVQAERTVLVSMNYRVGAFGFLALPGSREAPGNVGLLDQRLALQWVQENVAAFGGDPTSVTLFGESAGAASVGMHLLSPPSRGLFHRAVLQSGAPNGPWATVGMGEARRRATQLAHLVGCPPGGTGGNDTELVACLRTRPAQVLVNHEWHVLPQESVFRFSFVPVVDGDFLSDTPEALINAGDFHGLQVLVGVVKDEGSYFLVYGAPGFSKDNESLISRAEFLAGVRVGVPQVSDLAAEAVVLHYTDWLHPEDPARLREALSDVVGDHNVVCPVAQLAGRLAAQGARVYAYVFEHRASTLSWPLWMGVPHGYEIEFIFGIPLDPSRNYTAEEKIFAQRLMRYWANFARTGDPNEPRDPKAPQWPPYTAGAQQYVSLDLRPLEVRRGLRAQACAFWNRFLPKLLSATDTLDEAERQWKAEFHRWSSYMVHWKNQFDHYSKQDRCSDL

SMILES | IC50 [1] | Ki [2] | IC50 [3]
COc1ccccc1CN(C)CCCCCC(=O)N(C)CCCCCCCCN(C)C(=O)CCCCCN(C)Cc1ccccc1OC [CAPROCTAMINE] | 11600 nM |  | 
COc1ccccc1CN(C)CCCN(C)CCCNCCC[n+]1c(-c2ccccc2)c2cc(N)ccc2c2ccc(N)cc21 | 2190 nM | 894 nM | 952 nM
Nc1ccc2c(c1)c(-c1ccccc1)[n+](CCCNCCCNCCCNc1c3c(nc4ccccc14)CCCC3)c1cc(N)ccc21 | 63.7 nM | 1.49 nM | 1.55 nM
